Where two headings read alike, the source gives them in different places.
How the values were obtained:
[1] = In vitro cytotoxicity assay (MTT cell viability) in HepG2 cells; type: cell-based; conditions: human
Method: To evaluate antiviral selectivity, the cytotoxic activity of each compound was determined using a standard cell viability assay performed on the parental HepG2 cell line. Cell viability was determined by measuring the conversion of 3-(4,5-dimethylthiazol-2-yl)-2,5-diphenyltetrazolium bromide (MTT) to the insoluble formazan salt crystal that occurs in live cells. Briefly, HepG2 cells were seeded in 96-well plates at a density of 20,000 cells per well in EMEM+10% FBS (complete growth medium) and allowed to adhere overnight in a 37° C., 5% CO2 humidified incubator. The next day, test agents were prepared by performing 8 half-log10 serial dilutions in 100% DMSO at 200×the final desired concentration in the assay. Compounds were tested over a range of concentrations from 30 μM to 1.0 nM in the assay. HepG2 cells were incubated in the presence of various concentrations of CAMs for 7 days in a 37° C., 5% CO2 humidified incubator. At the completion of the 7-day incubation period, MTT reagent was added to each well and the mixture was incubated for an additional 3-4 hours. At the completion of the incubation period, all wells were aspirated to remove the culture medium. The formazan crystals were solubilized from the cell monolayers with 100% DMSO. Plates were briefly mixed on an orbital shaker and absorbance was measured at 492 nm using a Perkin-Elmer EnVision multi-label plate reader. All absorbance values were converted to a percentage of the signal obtained from the vehicle treated controls. Absorbance values at 492 nm are directly proportional to the number of viable cells present in the sample. A CC50 value (cytotoxic concentration that results in loss of 50% cell viability) was calculated from the dose-response curve by 4-parameter, non-linear regression analysis using the GraphPad Prism software. The positive control compound, staurosporine, reduced the viability of HepG2 cells in a dose-dependent manner (CC50=100 nM).

[2] = tested on: HBV replication in HepAD38 cells; assay: In vitro antiviral assay: extracellular HBV DNA by QPCR in HepAD38 cells; type: cell-based, HBV (genotype D, serotype ayw); conditions: Hepatitis B virus, 168 h
Method: The anti-HBV activity of the Capsid Assembly Modulators (CAMs) was evaluated in a cell based assay utilizing the human hepatoma cell line HepAD38 (Ladner, S K., et al., 1998). HepAD38 cells were derived from the parental line, HepG2, that were stably transfected with a construct containing an HBV genome (genotype D, serotype ayw) under the control of a tetracycline repressible CMV promoter. Upon removal of tetracycline, viral pre-genomic RNA (pgRNA) and mRNAs are expressed and infectious viral particles are assembled and secreted into the culture medium providing a reliable, robust system to measure multiple steps of the HBV life cycle. Disruption of capsid formation results in reduced levels of DNA-containing virus particles that are released into the culture supernatant. To quantify the effect of CAMs on HBV replication, we developed a sensitive QPCR-based assay that measures extracellular HBV DNA levels upon treatment of HepAD38 cells with various concentrations of test compounds.
HepAD38 cells were maintained in DMEM/F12 medium containing 10% FBS, 400 μg/mL G418 and 0.3 μg/mL tetracycline (tet+media) to maintain repression of HBV replication. To evaluate each compound, HepAD38 cells were seeded into 24-well collagen coated culture plates (Corning BioCoat) at a density of 200,000 cells per well in 1 mL of medium without tetracycline (tet-media) and allowed to adhere overnight at 37° C., 5% CO2 in a humidified incubator. The following day, media was refreshed and a dose range of each compound was prepared by performing 1 log10 serial dilutions in 100% DMSO at 200×the desired assay concentration. Dilutions were then added to the cells resulting in a final dose range of 1 μM to 10 pM and the plates were returned to the incubator. Following 7 days of incubation, culture supernatants were harvested and HBV DNA levels were evaluated by QPCR and compared to the vehicle treated control wells (i.e. DMSO alone).
To quantify HBV DNA levels, cell culture supernatants were diluted 1:10 in sterile, nuclease-free water (Gibco). The diluted supernatants were subsequently added to a PCR master mix containing 1×Roche Light Cycler Master Mix, 0.5 μM forward primer, 0.5 μM reverse primer, 0.2 μM Roche Universal Probe Library Probe 25. The volume was brought to 20 μL with nuclease-free water and amplification of the HBV target sequence was performed using a Roche LightCycler 480 QPCR instrument. PCR extended out to 45 cycles with each cycle consisting of a denaturation step at 95° C. for 10 sec., followed by an annealing step at 60° C. for 10 sec. and a brief extension step at 72° C. for 1 sec.
Extracellular HBV DNA levels, expressed in copies/mL, were determined by comparison to a standard curve (10^2-10^9 copies/mL) using the Roche LightCycler analysis software. These values were subsequently converted to percent inhibition of HBV replication by dividing the HBV DNA levels in the experimental samples with those obtained from the vehicle control (˜1-2×10^5 copies/mL). Potency, expressed as an EC50(the effective concentration required to inhibit 50% of HBV replication), was calculated from the dose-response curve using a 4-parameter non-linear regression analysis (GraphPad Prism). The nucleoside analog inhibitor entecavir was used as a positive control to validate each assay run. The EC50 value of entecavir in the HepAD38 assay was 0.5 nM, as previously reported in the literature.

[3] = tested on: HBV; conditions: Phase 1b clinical trial, 600 mg bid dosing for 29 days; cited from earlier work
[4] = 7 days incubation, read-out: Anti-HBV EC50

SMILES	CC50 at 7 days [1]	EC50 [2, 4]	EC50 ([2]; positive control, 7 days, read-out: EC50 in the HepAD38 assay)	reduction in HBV DNA [3]	CC50 at 7 days ([1]; positive control, HepG2 cells, 7 days, MTT, read-out: CC50 (viability of HepG2 cells))
Cc1c2c(c(C(=O)Nc3cccc(Cl)c3)n1C)CCC(C)(C)NC2=O [Example 8, N-(3-chlorophenyl)-2,3,6,6-tetramethyl-4-oxo-2,4,5,6,7,8-hexahydropyrrolo[3,4-c]azepine-1-carboxamide]	> 30 µM	0.05 to 0.499 µM			
Cc1c(C(=O)Nc2ccc(F)c(F)c2)c2c(n1C)C(=O)NC(C)(C)CC2 [Example 2, N-(3,4-difluorophenyl)-1,2,6,6-tetramethyl-8-oxo-1,4,5,6,7,8-hexahydropyrrolo[2,3-c]azepine-3-carboxamide]	5 to 30 µM	0.05 to 0.499 µM			
Cc1cc(NC(=O)c2c3c(n(C)c2C)C(=O)NC(C)CC3)ccc1F (centres unmarked) [Example 25, N-(4-fluoro-3-methylphenyl)-1,2,6-trimethyl-8-oxo-1,4,5,6,7,8-hexahydropyrrolo[2,3-c]azepine-3-carboxamide]	> 30 µM	< 0.05 µM			
Cc1c2c(c(C(=O)Nc3ccnc(F)c3)n1C)CCC(C)(C)NC2=O [Example 7, N-(2-fluoropyridin-4-yl)-2,3,6,6-tetramethyl-4-oxo-2,4,5,6,7,8-hexahydropyrrolo[3,4-c]azepine-1-carboxamide]	> 30 µM	0.05 to 0.499 µM			
Cc1cc(NC(=O)c2c3c(c(C)n2C)C(=O)N[C@@H](C)C3)ccc1F [Example 46, (S)-N-(4-fluoro-3-methylphenyl)-2,3,6-trimethyl-4-oxo-4,5,6,7-tetrahydro-2H-pyrrolo[3,4-c]pyridine-1-carboxamide]	> 30 µM	< 0.05 µM			
Cc1cc(NC(=O)c2c3c(c(C)n2C)C(=O)NC(C)C3C)ccc1F (centres unmarked) [Example 23, N-(4-fluoro-3-methylphenyl)-2,3,6,7-tetramethyl-4-oxo-4,5,6,7-tetrahydro-2H-pyrrolo[3,4-c]pyridine-1-carboxamide]	> 30 µM	< 0.05 µM			
Cc1cc(NC(=O)c2c3c(c(C)n2C)C(=O)NC(C)(C)CC3)ccc1F [Example 4, N-(4-fluoro-3-methylphenyl)-2,3,6,6-tetramethyl-4-oxo-2,4,5,6,7,8-hexahydropyrrolo[3,4-c]azepine-1-carboxamide]	> 30 µM	< 0.05 µM			
Cc1cc(NC(=O)c2c3c(C)c(C)[nH]c(=O)c3c(C)n2C)ccc1F [Example 45, N-(4-fluoro-3-methylphenyl)-2,3,6,7-tetramethyl-4-oxo-4,5-dihydro-2H-pyrrolo[3,4-c]pyridine-1-carboxamide]	5 to 30 µM	0.5 to 1 µM			
Cc1cc(NC(=O)c2c3c(c(C)n2C)C(=O)NC(C)CC3)ccc1F (centres unmarked) [Example 24, N-(4-fluoro-3-methylphenyl)-2,3,6-trimethyl-4-oxo-2,4,5,6,7,8-hexahydropyrrolo[3,4-c]azepine-1-carboxamide]	> 30 µM	< 0.05 µM			
Cc1ccc(F)c(NC(=O)c2c3c(c(C)n2C)C(=O)NC(C)(C)CC3)c1 [Example 10, N-(2-fluoro-5-methylphenyl)-2,3,6,6-tetramethyl-4-oxo-2,4,5,6,7,8-hexahydropyrrolo[3,4-c]azepine-1-carboxamide]	> 30 µM	< 0.05 µM			
Cc1c2c(c(C(=O)Nc3cccc(C(F)F)c3)n1C)CCC(C)(C)NC2=O [Example 9, N-(3-(difluoromethyl)phenyl)-2,3,6,6-tetramethyl-4-oxo-2,4,5,6,7,8-hexahydropyrrolo[3,4-c]azepine-1-carboxamide]	> 30 µM	0.05 to 0.499 µM			
Cc1cc(NC(=O)c2c3c(c(C)n2C)C(=O)NC(C)(C)CC3)cnc1F [Example 6, N-(6-fluoro-5-methylpyridin-3-yl)-2,3,6,6-tetramethyl-4-oxo-2,4,5,6,7,8-hexahydropyrrolo[3,4-c]azepine-1-carboxamide]	> 30 µM	> 1 µM			
C=C1[C@H](CO)[C@@H](O)C[C@@H]1n1cnc2c(=O)[nH]c(N)nc21 [entecavir, reference compound]			0.0005 µM		
O=C(Nc1cc(F)c(F)c(F)c1)c1ccc(F)c(S(=O)(=O)N2CCC(O)CC2)c1 [NVR 3-778]				−1.7 log 10	
Cc1cccc(NC(=O)c2c3c(c(C)n2C)C(=O)N[C@@H](C)C3)c1F [Example 47, (S)-N-(2-fluoro-3-methylphenyl)-2,3,6-trimethyl-4-oxo-4,5,6,7-tetrahydro-2H-pyrrolo[3,4-c]pyridine-1-carboxamide]	> 30 µM	0.5 to 1 µM			
CN[C@@H]1C[C@H]2O[C@@](C)([C@@H]1OC)n1c3ccccc3c3c4c(c5c6ccccc6n2c5c31)C(=O)NC4 [staurosporine, reference compound]					0.1 µM
Cc1cc(F)cc(NC(=O)c2c3c(c(C)n2C)C(=O)NC(C)(C)CC3)c1 [Example 11, N-(3-fluoro-5-methylphenyl)-2,3,6,6-tetramethyl-4-oxo-2,4,5,6,7,8-hexahydropyrrolo[3,4-c]azepine-1-carboxamide]	> 30 µM	< 0.05 µM			
Cc1c2c(c(C(=O)Nc3ccc(F)c(F)c3)n1C)CCC(C)NC2=O (centres unmarked) [Example 48, N-(3,4-difluorophenyl)-2,3,6-trimethyl-4-oxo-2,4,5,6,7,8-hexahydropyrrolo[3,4-c]azepine-1-carboxamide]	> 30 µM	0.5 to 1 µM			
CCn1c(C)c2c(c1C(=O)Nc1ccc(F)c(C)c1)CCC(C)(C)NC2=O [Example 3, 2-ethyl-N-(4-fluoro-3-methylphenyl)-3,6,6-trimethyl-4-oxo-2,4,5,6,7,8-hexahydropyrrolo[3,4-c]azepine-1-carboxamide]	> 30 µM	< 0.05 µM			
Cc1c2c(c(C(=O)Nc3ccc(F)c(C(F)F)c3)n1C)CCC(C)(C)NC2=O [Example 12, N-(3-(difluoromethyl)-4-fluorophenyl)-2,3,6,6-tetramethyl-4-oxo-2,4,5,6,7,8-hexahydropyrrolo[3,4-c]azepine-1-carboxamide]	> 30 µM	< 0.05 µM			
C=C1c2c(c(C)n(C)c2C(=O)Nc2ccc(F)c(C)c2)C(=O)NC1C (centres unmarked) [Example 22, N-(4-fluoro-3-methylphenyl)-2,3,6-trimethyl-7-methylene-4-oxo-4,5,6,7-tetrahydro-2H-pyrrolo[3,4-c]pyridine-1-carboxamide]	0.5 to 4.99 µM	0.5 to 1 µM			
Cc1c2c(c(C(=O)Nc3cc(F)c(F)c(F)c3)n1C)CCC(C)(C)NC2=O [Example 5, 2,3,6,6-tetramethyl-4-oxo-N-(3,4,5-trifluorophenyl)-2,4,5,6,7,8-hexahydropyrrolo[3,4-c]azepine-1-carboxamide]	> 30 µM	> 1 µM			
